Assays:
Assay type in all cases: in vivo
[1] = test system: harmful plants which are typical for rice cultivation, such as Cyperus monti, Echinochloa crus-galli and Sagittaria pygmaea; assay: Effect on harmful plants in rice (paddy rice conditions, visual scoring); conditions: applied into the flooding water, various dosages, scored visually approximately three weeks after application
Protocol: 3. Effect on Harmful Plants in Rice
Transplanted and seeded rice and typical broad-leaved and monocotyledonous rice weeds are grown in the greenhouse to the three-leaf stage (Echinochloa crus- galli 1.5 leaf) under paddy rice conditions (depth of the water: 2-3 cm) in sealed plastic pots. They are then treated with the compounds according to the invention. To this end, the formulated active substances are suspended, dissolved or emulsified in water and applied in various dosages by pouring into the water with which the test plants are flooded. After this treatment, the test plants are placed in the greenhouse under ideal growth conditions and kept thus over the entire experimental period.
Approximately three weeks after application, the test is evalued by means of visually scoring the damage to the plants by comparison with untreated controls.

[2] = test system: harmful plants such as Sinapis alba, Echinochloa crus- galli, Lolium multiflorum, Stellaria media, Cyperus iria, Amaranthus retroflexus, Setaria viridis and …; assay: Post-emergence effect on weeds (greenhouse pot test, visual scoring); conditions: applied post-emergence (three-leaf stage) at an application rate of 1 kg and less of active substance per hectare; scored visually after about 3 to 4 weeks vs untreated controls
Protocol: 2. Post-emergence Effect on Weeds
Seeds or rhizome pieces of monocotyledonous and dicotyledonous weeds are placed in sandy loam soil in plastic pots, covered with soil and grown in the greenhouse under good growth conditions. Three weeks after sowing, the test plants are treated in the three-leaf stage. The compounds according to the invention which are formulated as wettable powders or as emulsion concentrates are sprayed in various dosages on the green parts of the plants at an application rate of 600 to 800 l of water/ha (converted). After the test plants have remained in the greenhouse for about 3 to 4 weeks under ideal growth conditions, the effect of the preparations is scored visually by comparison with untreated controls. The agents according to the invention also have a good herbicidal post-emergence action against a broad range of economically important grass weeds and dicotyledonous weeds.

[3] = test system: harmful plants such as Stellaria media, Lolium multiflorum, Amaranthus retroflexus, Sinapis alba, Avena sativa and Setaria viridis; assay: Pre-emergence effect on weeds (greenhouse pot test, visual scoring); conditions: applied pre-emergence at an application rate of 1 kg or less of active substance per hectare; scored visually after 3 to 4 weeks vs untreated controls
Description: 1 Pre-emergence Effect on Weeds
Seeds or rhizome pieces of monocotyledonous and dicotyledonous weeds plants are placed in sandy loam soil in plastic pots and covered with soil. The compounds according to the invention which are formulated in the form of wettable powders or emulsion concentrates are then applied to the surface of the soil cover in the form of an aqueous suspension or emulsion at an application rate of 600 to 800 l of water/ha (converted), in various dosages.

Row | SMILES | herbicidal action against harmful plants typical for rice cultivation [1] | herbicidal action against harmful plants, post-emergence [2] | herbicidal action against harmful plants, pre-emergence [3]
1 | CC(C)c1nc(N)nc(NC(CCc2ccccc2)C2CC2)n1 (stereo not shown) [Example 9-9] | good herbicidal action | very good herbicidal action | very good herbicidal action
2 | COc1cccc(CCC(Nc2nc(N)nc(C(C)(C)F)n2)C2CCC2)c1 (stereo not shown) [Example 4-24] | good herbicidal action | very good herbicidal action | very good herbicidal action
3 | CC(C)c1nc(N)nc(NC(CCc2cccc(Cl)c2)C2CC2)n1 (stereo not shown) [Example 9-7] | good herbicidal action | very good herbicidal action | very good herbicidal action
4 | Cc1cccc(CCC(Nc2nc(N)nc(C(C)C)n2)C2CCC2)c1 (stereo not shown) [Example 4-14] | good herbicidal action | very good herbicidal action | very good herbicidal action
5 | COc1cccc(CCCC(Nc2nc(N)nc(C(C)(C)F)n2)C2CCC2)c1 (stereo not shown) [Example 28-21] | – | very good herbicidal action | very good herbicidal action
6 | CC(C)c1nc(N)nc(NC(CCCCc2ccccc2)C2CC2)n1 (stereo not shown) [Example 30-1] | – | very good herbicidal action | very good herbicidal action
7 | CCc1nc(N)nc(NC(CCCc2ccccc2)C2CC2)n1 (stereo not shown) [Example 22-9] | – | very good herbicidal action | very good herbicidal action
8 | CC(C)(F)c1nc(N)nc(NC(CCc2cccc(Cl)c2)C2CCC2)n1 (stereo not shown) [Example 4-11] | – | very good herbicidal action | very good herbicidal action
9 | CC(C)(F)c1nc(N)nc(NC(CCCc2cccc(Cl)c2)C2CCC2)n1 (stereo not shown) [Example 28-14] | – | very good herbicidal action | very good herbicidal action
10 | CC(C)c1nc(N)nc(NC(CCc2ccccc2)C2CCOC2)n1 (stereo not shown) [Example 20-2] | – | very good herbicidal action | very good herbicidal action
11 | CC(C)(F)c1nc(N)nc(NC(CCc2ccccc2)c2ccoc2)n1 (stereo not shown) [Example 18-1] | – | very good herbicidal action | very good herbicidal action
12 | Cc1cccc(CCCC(Nc2nc(N)nc(C(C)C)n2)C2CC2)c1 (stereo not shown) [Example 22-26] | – | very good herbicidal action | very good herbicidal action
13 | CC(C)(F)c1nc(N)nc(NC(CCc2cccc(Cl)c2)CC2CC2)n1 (stereo not shown) [Example 32-6] | – | very good herbicidal action | very good herbicidal action
14 | CC(C)(F)c1nc(N)nc(NC(CCc2ccccc2)C2CCOC2)n1 (stereo not shown) [Example 20-1] | – | very good herbicidal action | very good herbicidal action
15 | CC(C)c1nc(N)nc(NC(CCCc2cccc(Cl)c2)C2CCC2)n1 (stereo not shown) [Example 28-13] | – | very good herbicidal action | very good herbicidal action
16 | CC(C)c1nc(N)nc(NC(CCc2cccc(F)c2)C2CCC2)n1 (stereo not shown) [Example 4-27] | – | very good herbicidal action | very good herbicidal action
17 | CC(C)c1nc(N)nc(NC(CCCc2ccccc2)C2CCC2)n1 (stereo not shown) [Example 28-4] | – | very good herbicidal action | very good herbicidal action
18 | CC(C)c1nc(N)nc(NC(CCc2ccccc2)C2CCCC2)n1 (stereo not shown) [Example 8-1] | – | very good herbicidal action | very good herbicidal action

Row | SMILES | herbicidal action against harmful plants typical for rice cultivation [1] | herbicidal action against harmful plants, post-emergence [2] | herbicidal action against harmful plants, pre-emergence [3]
19 | CC(C)(F)c1nc(N)nc(NC(CCc2cccc(Cl)c2)C2CC2)n1 (stereo not shown) [Example 9-8] | – | very good herbicidal action | very good herbicidal action
20 | COc1cccc(CCC(CC2CC2)Nc2nc(N)nc(C(C)C)n2)c1 (stereo not shown) [Example 32-11] | – | very good herbicidal action | very good herbicidal action
21 | Cc1cccc(CCC(Nc2nc(C)nc(N)n2)C2CCC2)c1 (stereo not shown) [Example 4-29, 2-Amino-6-methyl-4-[3-(3-methylphenyl)-1-cyclobutyl-1-propylamino]1,3,5-triazine] | – | very good herbicidal action | very good herbicidal action
22 | Nc1nc(NC(CCCCc2ccccc2)C2CCC2)nc(C(F)(F)F)n1 (stereo not shown) [Example 31-2] | – | very good herbicidal action | very good herbicidal action
23 | CC(C)(F)c1nc(N)nc(NC(CCc2cccc(C(F)(F)F)c2)C2CC2)n1 (stereo not shown) [Example 9-6] | – | very good herbicidal action | very good herbicidal action
24 | Cc1cccc(CCC(CC2CC2)Nc2nc(N)nc(C(C)(C)F)n2)c1 (stereo not shown) [Example 32-10] | – | very good herbicidal action | very good herbicidal action
25 | Cc1cccc(CCC(Nc2nc(N)nc(CC(C)C)n2)C2CC2)c1 (stereo not shown) [Example 9-15] | – | very good herbicidal action | very good herbicidal action
26 | CC(C)(F)c1nc(N)nc(NC(CCc2ccccc2)CC2CC2(F)F)n1 (stereo not shown) [Example 33-2] | – | very good herbicidal action | very good herbicidal action
27 | CC(C)(F)c1nc(N)nc(NC(CCc2ccccc2)C2CC2(C)C)n1 (stereo not shown) [Example 10-1] | – | very good herbicidal action | very good herbicidal action
28 | CC(C)(F)c1nc(N)nc(NC(CCc2ccccc2)C2CCCO2)n1 (stereo not shown) [Example 19-5] | – | very good herbicidal action | very good herbicidal action
29 | CC(C)c1nc(N)nc(NC(CCc2ccccc2)c2ccccc2)n1 (stereo not shown) [Example 18-4] | – | very good herbicidal action | very good herbicidal action
30 | Cc1cccc(CCC(Nc2nc(N)nc(C(C)(C)F)n2)C2CC2)c1 (stereo not shown) [Example 9-16] | – | very good herbicidal action | very good herbicidal action
31 | CC(C)(F)c1nc(N)nc(NC(CCCc2cccc(Cl)c2)C2CC2)n1 (stereo not shown) [Example 22-18] | – | very good herbicidal action | very good herbicidal action
32 | CC(C)(F)c1nc(N)nc(NC(CCc2ccccc2)c2ccccc2)n1 (stereo not shown) [Example 18-3] | – | very good herbicidal action | very good herbicidal action
33 | Cc1cccc(CCC(CC2CC2)Nc2nc(N)nc(C(C)C)n2)c1 (stereo not shown) [Example 32-9] | – | very good herbicidal action | very good herbicidal action
34 | CCc1nc(N)nc(NC(CCc2ccccc2)CC2CC2(F)F)n1 (stereo not shown) [Example 33-4] | – | very good herbicidal action | very good herbicidal action
35 | Cc1cccc(CCCC(Nc2nc(N)nc(C(C)(C)F)n2)C2CC2)c1 (stereo not shown) [Example 22-27] | – | very good herbicidal action | very good herbicidal action
36 | CC(C)(F)c1nc(N)nc(NC(CCc2ccccc2)CC2CC2)n1 (stereo not shown) [Example 32-2] | – | very good herbicidal action | very good herbicidal action

Reference: patent US20030162661A1, “2,4-Diamino-1,3,5-triazines, their preparation, and their use as herbicides and plant growth regulators” (priority 1998, published 2003)
